# Experimental data taken from patent publication US20240269238A1, “Therapeutic Regimens and Methods for Reducing Body Weight in a Subject with Fatty Liver Disease using a GLP-1R and GCGR Agonist” (Spitfire Pharma LLC, priority 2022, published 2024).
# Experiments:
# [1] = tested on: alanine aminotransferase (ALT) and corrected T1 (cT1); experiment: Phase 1b 24-week NAFLD study (Example 3): liver inflammation by ALT levels and cT1 imaging; type: in vivo, human; conditions: all doses, week 24
# Source text: Provided herein is disclosure of a 12-week extension study of the study provided in Example 1, providing a 24-week a Phase 1b, randomized, double-blind, placebo-controlled study to assess the effects of pemvidutide (also termed herein as ALT-801), the safety of pemvidutide and effects on weight loss, hepatic fat fraction, anthropometric parameters, lipid metabolism, as well as inflammatory, fibrosis and other markers in diabetic and non-diabetic (type 2 diabetes) overweight and obese (BMI≥28.0 kg/m^2) subjects with NAFLD (defined as liver fat content (LFC) by MRI-PDFF ≥10%; absence of significant fibrosis, defined as FibroScan® LSM ≤10 kPa), alanine aminotransferase (ALT) and aspartate aminotransferase (AST) laboratory values of ≤75 IU/L and HbA1c <9.5. Men and women aged 18-65 years were studied. […]
# The primary endpoint of this study was a reduction in liver fat content (LFC) by MRI-PDFF at Week 24 compared to Week 0 (zero). […] Adverse events (AEs), including serious and severe AEs, AEs leading to discontinuation, GI tolerability, vital signs, and glycemic control including fasting glucose and HbA1c levels were also measured. […]
# [2] = Phase 1b 24-week NAFLD study (Example 3): serum lipids, blood pressure, heart rate, glycemic control; type: in vivo, human
# Source text: Provided herein is disclosure of a 12-week extension study of the study provided in Example 1, providing a 24-week a Phase 1b, randomized, double-blind, placebo-controlled study to assess the effects of pemvidutide (also termed herein as ALT-801), the safety of pemvidutide and effects on weight loss, hepatic fat fraction, anthropometric parameters, lipid metabolism, as well as inflammatory, fibrosis and other markers in diabetic and non-diabetic (type 2 diabetes) overweight and obese (BMI≥28.0 kg/m^2) subjects with NAFLD (defined as liver fat content (LFC) by MRI-PDFF ≥10%; absence of significant fibrosis, defined as FibroScan® LSM ≤10 kPa), alanine aminotransferase (ALT) and aspartate aminotransferase (AST) laboratory values of ≤75 IU/L and HbA1c <9.5. Men and women aged 18-65 years were studied. Diabetic subjects were defined as those that have undergone stable dose (≥3 months) metformin or SLGT-2 therapy and no use of insulin, sulfonylureas, DPP-4, GLP-1 treatment; Ninety-four (94) subjects were enrolled in the initial 12-week Phase 1b NAFLD trial and 83 subjects who completed were invited to receive a total of 12 additional weeks of blinded treatment. Of those subjects, 66 consented to rollover, of which 64 were eligible to participate.
# The primary endpoint of this study was a reduction in liver fat content (LFC) by MRI-PDFF at Week 24 compared to Week 0 (zero). Key secondary endpoints include percent (%) weight loss at Week 24 compared to Week 0 (zero), and liver inflammation by alanine aminotransferase (ALT) levels and corrected T1 (cT1) imaging at Week 24 as compared to Week 0 (zero). Adverse events (AEs), including serious and severe AEs, AEs leading to discontinuation, GI tolerability, vital signs, and glycemic control including fasting glucose and HbA1c levels were also measured.
# glucagon receptor (GCGR) = glucagon receptor (GCGR) (Homo sapiens, UniProt P47871); experiment: cellular assay, agonist activity at GCGR; type: cell-based
# Source text: (§1) This disclosure relates to a dual agonist peptide(s) as well as pharmaceutical dosage formulations comprising, and methods for using, the same. The dual agonist peptides have affinity for, and in preferred embodiments about equal affinity for, glucagon-like peptide 1 receptor (GLP-1R) and glucagon receptor (GCGR), as may be determined using a cellular assay. In some embodiments, this disclosure provides pharmaceutical dosage formulations configured to induce weight loss in a human being with fatty liver disease. In some embodiments, the human being may, or may not, suffer from type 2 diabetes. In some embodiments, the disclosure provides pharmaceutical dosage formulations configured to reduce pathogenic plasma lipid mediators. As used herein, “pathogenic” serum lipid mediators, included but are not limited to the following reactive lipid species: malondialdehyde (MDA), isolevuglandins (IsoLG), methyglyoxal (MGO), 4-oxononenal (ONE), and 4-hydroxynonenal (HNE). Oxidized phospholipids include 1-palmitoyl-2-oxovaleroyl-sn-glycero-3-phosphorylcholine (POVPC), 1-O-alkyl-2-azelaoyl-sn-glycero-3-phophorylcholine (azPAF), 1-(Palmitoyl)-2-(5-keto-6-octene-dioyl) phosphatidylcholine (KOdiA-PC), 1-palmitoyl-2-F2-isoprostane-sn-glycero-3-phosphocholine (F2IsoP-PC), and 1-palmitoyl-2-(5,6)-epoxyisoprostane E2-sn-glycero-3-phosphocholine (PEIPC). […]
# [3] = target: glucagon-like peptide 1 receptor (GLP-1R) (Homo sapiens, UniProt P43220); experiment: cellular assay, agonist activity at GLP-1R; type: cell-based
# Source text: as §1
# Chain of glucagon-like peptide 1 receptor (GLP-1R) (P43220 24-463): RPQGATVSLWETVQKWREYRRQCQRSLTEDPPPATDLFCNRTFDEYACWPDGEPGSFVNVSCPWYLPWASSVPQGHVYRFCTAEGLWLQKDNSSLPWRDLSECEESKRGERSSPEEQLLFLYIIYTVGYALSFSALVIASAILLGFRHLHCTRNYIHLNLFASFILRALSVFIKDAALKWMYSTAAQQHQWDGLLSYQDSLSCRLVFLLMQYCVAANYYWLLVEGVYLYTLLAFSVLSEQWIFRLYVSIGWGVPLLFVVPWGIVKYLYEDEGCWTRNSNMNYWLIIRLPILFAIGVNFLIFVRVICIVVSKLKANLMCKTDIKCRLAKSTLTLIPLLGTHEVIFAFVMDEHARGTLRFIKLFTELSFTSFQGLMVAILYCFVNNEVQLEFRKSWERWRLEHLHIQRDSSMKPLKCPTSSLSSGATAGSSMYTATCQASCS
# Chain of glucagon receptor (GCGR) (P47871 26-477): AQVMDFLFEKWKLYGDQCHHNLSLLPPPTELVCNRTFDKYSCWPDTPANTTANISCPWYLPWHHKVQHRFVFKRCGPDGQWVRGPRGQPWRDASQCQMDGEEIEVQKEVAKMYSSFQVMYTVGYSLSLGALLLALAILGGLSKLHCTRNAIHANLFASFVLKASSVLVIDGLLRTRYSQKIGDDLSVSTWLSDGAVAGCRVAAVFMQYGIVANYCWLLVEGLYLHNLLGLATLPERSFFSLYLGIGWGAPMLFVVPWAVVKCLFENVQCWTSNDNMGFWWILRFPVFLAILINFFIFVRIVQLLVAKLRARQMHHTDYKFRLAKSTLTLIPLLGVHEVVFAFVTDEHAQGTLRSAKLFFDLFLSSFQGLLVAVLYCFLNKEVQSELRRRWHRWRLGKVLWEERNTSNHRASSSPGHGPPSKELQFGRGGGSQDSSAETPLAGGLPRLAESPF
smiles,measurement,setting,value
"CC[C@H](C)[C@H](NC(=O)[C@H](Cc1ccccc1)NC(=O)[C@H](CCC(=O)O)NC(=O)[C@@H]1CCCCNC(=O)CC[C@H](NC(=O)[C@H](CC(=O)O)NC(=O)[C@H](CC(C)C)NC(=O)[C@H](Cc2ccc(O)cc2)NC(=O)[C@H](CCCCN)NC(=O)[C@H](CO)NC(=O)[C@H](Cc2ccc(O)cc2)NC(=O)[C@H](CC(=O)O)NC(=O)[C@H](CO)NC(=O)[C@@H](NC(=O)[C@H](Cc2ccccc2)NC(=O)[C@@H](NC(=O)CNC(=O)[C@H](CCC(N)=O)NC(=O)C(C)(C)NC(=O)[C@@H](N)Cc2c[nH]cn2)[C@@H](C)O)[C@H](C)O)C(=O)N[C@@H](CCCCNC(=O)C2O[C@@H](OCCCCCCCCCCCCCCCCCC(=O)O)C(O)C(O)[C@@H]2O)C(=O)N[C@@H](C)C(=O)N[C@@H](C)C(=O)N1)C(=O)N[C@@H](CCC(N)=O)C(=O)N[C@@H](Cc1c[nH]c2ccccc12)C(=O)N[C@@H](CC(C)C)C(=O)N[C@@H](CC(C)C)C(=O)N[C@@H](CCC(N)=O)C(=O)N[C@H](C(N)=O)[C@@H](C)O (some centres unmarked) [ALT-801, Pemvidutide]",ALT levels,[1],robust reduction of ALT levels
same,cT1 response (80 ms reduction vs baseline),[1],high rates of cT1 response
same,systolic blood pressure reduction,"[2]; 2.4 mg per week, week 24",significant
same,blood pressure and heart rate,"[2]; all doses, week 24",improvements in blood pressure without clinically meaningful increases in heart rate
same,serum lipids,"[2]; all doses, week 24",improvements in serum lipids
same,glycemic parameters (fasting glucose and HbA1c),"[2]; diabetic patients, all doses, Week 24",improvements in glycemic parameters
same,EC50,glucagon receptor (GCGR),~0.04 nM
same,EC50,[3],~0.04 nM
